# Test results published in publication PMC10746543, “Design principles for cyclin K molecular glue degraders” (Nature Chemical Biology, 2023).
# “And” between values parts separate entries of the source, which are not always exact repeats. Identical values can stand only once. Like-named read-outs stand apart in the source and are kept apart here.
# Tests used:
# HEK293T cells = assay: Drug sensitivity assay (CellTiter-Glo viability) with or without MLN4924 pretreatment; assay type: cell-based, human; conditions: Supplementary Table 2; for EC50: Homo sapiens, HEK-293T, HEK293T viability, 72 h, compound alone, read-out: Cellular assays EC50; for Toxicity rescue: MLN4924-mediated cytotoxicity rescue, 10 µM used where n.d.
# In short: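 Luminescent ATP read-out (CellTiter-Glo) after 3 days of drug exposure, normalised to DMSO controls. Cells were HEK293T–Cas9, pretreated with 100 nM MLN4924 or DMSO for 2 h before drug dispensing.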
# CDK12–cyclin K and DDB1 = molecular target: T1, CDK12–cyclin K and DDB1 (Homo sapiens, UniProt Q16531+Q9NYV4, K965R); assay: TR-FRET ternary complex formation assay (compound titration); assay type: binding; conditions: for fold lower affinity than DS11: TR-FRET complex formation; for TR-FRET signal at compound concentration: replicate titrations
# T1 construct: His6–CDK12 (a.a. 713–1,052); full-length or beta-propeller B domain deletion (ΔBPB: a.a. 396–705 deleted) constructs of His6–DDB1ΔBPB, StrepII–Avi–DDB1, or His6–Spy–DDB1; made in house; host or cells: Trichoplusia ni High Five insect cells (baculovirus)
# T1 sequence (Q9NYV4 713-1052 K965R): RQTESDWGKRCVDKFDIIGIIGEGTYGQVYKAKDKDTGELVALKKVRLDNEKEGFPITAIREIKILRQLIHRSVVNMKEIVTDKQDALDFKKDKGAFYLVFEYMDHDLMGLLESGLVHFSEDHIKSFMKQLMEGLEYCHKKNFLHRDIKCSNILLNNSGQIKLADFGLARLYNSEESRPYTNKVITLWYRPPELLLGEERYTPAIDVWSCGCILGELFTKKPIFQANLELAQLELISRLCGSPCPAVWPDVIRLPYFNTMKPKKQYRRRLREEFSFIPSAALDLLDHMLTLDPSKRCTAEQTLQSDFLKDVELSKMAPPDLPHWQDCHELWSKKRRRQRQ
# T1 sequence (O75909 1-267 partner): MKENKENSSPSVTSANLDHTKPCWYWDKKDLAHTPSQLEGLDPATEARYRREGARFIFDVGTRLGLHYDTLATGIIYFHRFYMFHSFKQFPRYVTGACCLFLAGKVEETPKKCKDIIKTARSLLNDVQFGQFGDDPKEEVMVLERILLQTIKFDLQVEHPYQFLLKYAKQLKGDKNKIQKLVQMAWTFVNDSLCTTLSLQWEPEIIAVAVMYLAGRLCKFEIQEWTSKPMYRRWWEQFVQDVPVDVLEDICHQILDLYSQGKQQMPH
# T1 sequence (Q16531 whole entry): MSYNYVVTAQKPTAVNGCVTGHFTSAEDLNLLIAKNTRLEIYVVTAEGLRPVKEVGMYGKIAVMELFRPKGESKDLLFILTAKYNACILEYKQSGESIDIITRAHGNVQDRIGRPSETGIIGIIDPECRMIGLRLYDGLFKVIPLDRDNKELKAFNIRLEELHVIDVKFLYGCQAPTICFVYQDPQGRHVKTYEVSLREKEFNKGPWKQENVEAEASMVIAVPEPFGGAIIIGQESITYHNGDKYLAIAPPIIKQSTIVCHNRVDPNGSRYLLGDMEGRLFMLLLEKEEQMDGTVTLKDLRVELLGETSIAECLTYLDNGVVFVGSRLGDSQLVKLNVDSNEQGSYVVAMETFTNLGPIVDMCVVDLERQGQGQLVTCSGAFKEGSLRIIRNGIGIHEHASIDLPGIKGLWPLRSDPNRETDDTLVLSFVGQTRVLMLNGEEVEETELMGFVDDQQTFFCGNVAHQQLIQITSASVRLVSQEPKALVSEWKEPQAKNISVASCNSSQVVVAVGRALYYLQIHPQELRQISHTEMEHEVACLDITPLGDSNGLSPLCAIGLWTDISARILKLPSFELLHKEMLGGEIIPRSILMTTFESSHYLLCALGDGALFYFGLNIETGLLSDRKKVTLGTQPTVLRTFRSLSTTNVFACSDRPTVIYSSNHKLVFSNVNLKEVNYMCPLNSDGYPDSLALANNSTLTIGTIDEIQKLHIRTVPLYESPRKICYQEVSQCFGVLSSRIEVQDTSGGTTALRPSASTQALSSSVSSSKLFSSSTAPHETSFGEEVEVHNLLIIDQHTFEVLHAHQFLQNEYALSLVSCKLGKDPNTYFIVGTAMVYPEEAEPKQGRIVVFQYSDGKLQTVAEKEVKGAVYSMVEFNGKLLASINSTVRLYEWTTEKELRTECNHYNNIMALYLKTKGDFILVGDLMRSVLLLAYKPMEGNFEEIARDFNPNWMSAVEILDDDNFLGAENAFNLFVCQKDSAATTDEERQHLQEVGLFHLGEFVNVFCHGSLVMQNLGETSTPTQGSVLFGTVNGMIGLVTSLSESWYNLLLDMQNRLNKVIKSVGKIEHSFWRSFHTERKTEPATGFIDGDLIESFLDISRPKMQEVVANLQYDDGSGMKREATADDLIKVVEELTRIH
# In short: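 TR-FRET ratio 520/490 nm; 70 μs delay before read to suppress background.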
# [1] = tested on: cyclin K–eGFP degradation reporter; assay: Cyclin K reporter stability analysis (dual-color cyclin K–eGFP reporter); assay type: cell-based, human; conditions: Supplementary Table 2; HEK293T cycK-eGFP reporter, 5 h; read-out: Cellular assays DC50
# Protocol: HEK293T–Cas9 cells expressing the cyclin K–eGFP degradation reporter were resuspended at 1 × 10^6 ml^−1 and 50 µl of cell suspension was seeded in non-cell-culture-treated 384-well plates. Shortly after, cells were treated with drug or DMSO for 5 h. […] The fluorescent signal was quantified by flow cytometry (LSRFortessa flow cytometer, BD Biosciences). Using FlowJo (flow cytometry analysis software, BD Biosciences), the geometric mean of the eGFP and mCherry fluorescent signal for round and mCherry-positive cells was calculated. The ratio of eGFP to mCherry was normalized to the average of three DMSO-treated controls.
# [2] = Supplementary Table 2, read-out: TR-FRET EC50 TR-FRET
# [3] = compound concentration 79.2001 nM
# [4] = compound concentration 158.4 nM
# [5] = compound concentration 309.6 nM
# [6] = compound concentration 626.401 nM
# [7] = compound concentration 1252.8 nM
# [8] = compound concentration 9936.01 nM
# [9] = compound concentration 20016 nM
# [10] = in vitro complex formation, 50 nM CDK12–cyclin K, 100 nM DDB1, text and figures, read-out: TR-FRET EC50
# [11] = sheet MOESM7, read-out: log TR-FRET EC50 (converted)
# [12] = compound concentration 0.468 nM
# [13] = compound concentration 7.92001 nM
# [14] = compound concentration 15.84 nM
# [15] = compound concentration 30.96 nM
# [16] = compound concentration 62.6401 nM
# [17] = compound concentration 125.28 nM
# [18] = compound concentration 244.8 nM
# [19] = compound concentration 993.601 nM
# [20] = compound concentration 2001.6 nM
smiles,measurement,setting,value
CC[C@H](CO)Nc1nc(NCCCCc2ccccc2)c2ncn(C(C)C)c2n1 [DS09],EC50,HEK293T cells,> 10000 nM
same,Toxicity rescue,HEK293T cells,0%
same,EC50,CDK12–cyclin K and DDB1; [2],349 nM
same,fold lower affinity than DS11,CDK12–cyclin K and DDB1,5-10 fold
same,TR-FRET signal,CDK12–cyclin K and DDB1; compound concentration 4.68 nM,0.1538 and 0.1597
same,TR-FRET signal at compound concentration,CDK12–cyclin K and DDB1; compound concentration 4.68 nM,0.1538 and 0.1597
same,TR-FRET signal,CDK12–cyclin K and DDB1; compound concentration 21.6 nM,0.2215 and 0.2268
same,TR-FRET signal at compound concentration,CDK12–cyclin K and DDB1; compound concentration 21.6 nM,0.2215 and 0.2268
same,TR-FRET signal,CDK12–cyclin K and DDB1; compound concentration 36 nM,0.3624 and 0.3872
same,TR-FRET signal at compound concentration,CDK12–cyclin K and DDB1; compound concentration 36 nM,0.3624 and 0.3872
same,TR-FRET signal,CDK12–cyclin K and DDB1; [3],0.5721 and 0.6282
same,TR-FRET signal at compound concentration,CDK12–cyclin K and DDB1; [3],0.5721 and 0.6282
same,TR-FRET signal,CDK12–cyclin K and DDB1; [4],0.8913 and 0.9385
same,TR-FRET signal at compound concentration,CDK12–cyclin K and DDB1; [4],0.8913 and 0.9385
same,TR-FRET signal,CDK12–cyclin K and DDB1; [5],1.311 and 1.295
same,TR-FRET signal at compound concentration,CDK12–cyclin K and DDB1; [5],1.311 and 1.295
same,TR-FRET signal,CDK12–cyclin K and DDB1; [6],1.632 and 1.6565
same,TR-FRET signal at compound concentration,CDK12–cyclin K and DDB1; [6],1.632 and 1.6565
same,TR-FRET signal,CDK12–cyclin K and DDB1; [7],1.8858 and 2.021
same,TR-FRET signal at compound concentration,CDK12–cyclin K and DDB1; [7],1.8858 and 2.021
same,TR-FRET signal,CDK12–cyclin K and DDB1; compound concentration 2448 nM,2.206 and 2.209
same,TR-FRET signal at compound concentration,CDK12–cyclin K and DDB1; compound concentration 2448 nM,2.206 and 2.209
same,TR-FRET signal,CDK12–cyclin K and DDB1; [8],2.4811 and 2.469
same,TR-FRET signal at compound concentration,CDK12–cyclin K and DDB1; [8],2.4811 and 2.469
same,TR-FRET signal,CDK12–cyclin K and DDB1; [9],2.543 and 2.456
same,TR-FRET signal at compound concentration,CDK12–cyclin K and DDB1; [9],2.543 and 2.456
same,EC50,CDK12–cyclin K and DDB1; [10],349 ± 15 nM
same,EC50,CDK12–cyclin K and DDB1; [11],349 nM
same,DC50,[1],> 10000 nM
CC[C@H](CO)Nc1nc(NCCCCCCc2ccccc2)c2ncn(C(C)C)c2n1 [DS10],EC50,HEK293T cells,> 10000 nM
same,Toxicity rescue,HEK293T cells,0%
same,EC50,CDK12–cyclin K and DDB1; [2],595 nM
same,fold lower affinity than DS11,CDK12–cyclin K and DDB1,5-10 fold
same,TR-FRET signal at compound concentration,CDK12–cyclin K and DDB1; compound concentration 4.68 nM,0.1344 and 0.1608
same,TR-FRET signal at compound concentration,CDK12–cyclin K and DDB1; compound concentration 21.6 nM,0.1474 and 0.1725
same,TR-FRET signal at compound concentration,CDK12–cyclin K and DDB1; compound concentration 36 nM,0.1731 and 0.2063
same,TR-FRET signal at compound concentration,CDK12–cyclin K and DDB1; [3],0.1998 and 0.2552
same,TR-FRET signal at compound concentration,CDK12–cyclin K and DDB1; [4],0.2546 and 0.3178
same,TR-FRET signal at compound concentration,CDK12–cyclin K and DDB1; [5],0.334 and 0.4076
same,TR-FRET signal at compound concentration,CDK12–cyclin K and DDB1; [6],0.4243 and 0.5117
same,TR-FRET signal at compound concentration,CDK12–cyclin K and DDB1; [7],0.5049 and 0.5958
same,TR-FRET signal at compound concentration,CDK12–cyclin K and DDB1; compound concentration 2448 nM,0.6152 and 0.6779
same,TR-FRET signal at compound concentration,CDK12–cyclin K and DDB1; [8],0.7339 and 0.7716
same,TR-FRET signal at compound concentration,CDK12–cyclin K and DDB1; [9],0.6991 and 0.7616
same,EC50,CDK12–cyclin K and DDB1; [10],595 ± 91 nM
same,DC50,[1],> 10000 nM
CC[C@H](CO)Nc1nc(NCCCc2ccccc2)c2ncn(C(C)C)c2n1 [DS11],EC50,HEK293T cells,> 10000 nM
same,Toxicity rescue,HEK293T cells,0%
same,EC50,CDK12–cyclin K and DDB1; [2],56.8 nM
same,TR-FRET signal,CDK12–cyclin K and DDB1; [12],0.241 and 0.2489
same,"TR-FRET signal, individual replicate",CDK12–cyclin K and DDB1; [12],0.241 and 0.2489
same,TR-FRET signal at compound concentration,CDK12–cyclin K and DDB1; [12],0.241 and 0.2489
same,TR-FRET signal,CDK12–cyclin K and DDB1; compound concentration 2.16 nM,0.2983 and 0.2991
same,"TR-FRET signal, individual replicate",CDK12–cyclin K and DDB1; compound concentration 2.16 nM,0.2983 and 0.2991
same,TR-FRET signal at compound concentration,CDK12–cyclin K and DDB1; compound concentration 2.16 nM,0.2983 and 0.2991
same,TR-FRET signal,CDK12–cyclin K and DDB1; compound concentration 3.6 nM,0.374 and 0.3698
same,"TR-FRET signal, individual replicate",CDK12–cyclin K and DDB1; compound concentration 3.6 nM,0.374 and 0.3698
same,TR-FRET signal at compound concentration,CDK12–cyclin K and DDB1; compound concentration 3.6 nM,0.374 and 0.3698
same,TR-FRET signal,CDK12–cyclin K and DDB1; [13],0.5495 and 0.5492
same,"TR-FRET signal, individual replicate",CDK12–cyclin K and DDB1; [13],0.5495 and 0.5492
same,TR-FRET signal at compound concentration,CDK12–cyclin K and DDB1; [13],0.5495 and 0.5492
same,TR-FRET signal,CDK12–cyclin K and DDB1; [14],0.8302 and 0.8222
same,"TR-FRET signal, individual replicate",CDK12–cyclin K and DDB1; [14],0.8302 and 0.8222
same,TR-FRET signal at compound concentration,CDK12–cyclin K and DDB1; [14],0.8302 and 0.8222
same,TR-FRET signal,CDK12–cyclin K and DDB1; [15],1.2679 and 1.278
same,"TR-FRET signal, individual replicate",CDK12–cyclin K and DDB1; [15],1.2679 and 1.278
same,TR-FRET signal at compound concentration,CDK12–cyclin K and DDB1; [15],1.2679 and 1.278
same,TR-FRET signal,CDK12–cyclin K and DDB1; [16],1.798 and 1.8918
same,"TR-FRET signal, individual replicate",CDK12–cyclin K and DDB1; [16],1.798 and 1.8918
same,TR-FRET signal at compound concentration,CDK12–cyclin K and DDB1; [16],1.798 and 1.8918
same,TR-FRET signal,CDK12–cyclin K and DDB1; [17],2.382 and 2.496
same,"TR-FRET signal, individual replicate",CDK12–cyclin K and DDB1; [17],2.382 and 2.496
same,TR-FRET signal at compound concentration,CDK12–cyclin K and DDB1; [17],2.382 and 2.496
same,TR-FRET signal,CDK12–cyclin K and DDB1; [18],2.742 and 2.9079
same,"TR-FRET signal, individual replicate",CDK12–cyclin K and DDB1; [18],2.742 and 2.9079
same,TR-FRET signal at compound concentration,CDK12–cyclin K and DDB1; [18],2.742 and 2.9079
same,TR-FRET signal,CDK12–cyclin K and DDB1; [19],3.1224 and 3.3313
same,"TR-FRET signal, individual replicate",CDK12–cyclin K and DDB1; [19],3.1224 and 3.3313
same,TR-FRET signal at compound concentration,CDK12–cyclin K and DDB1; [19],3.1224 and 3.3313
same,TR-FRET signal,CDK12–cyclin K and DDB1; [20],3.176 and 3.283
same,"TR-FRET signal, individual replicate",CDK12–cyclin K and DDB1; [20],3.176 and 3.283
same,TR-FRET signal at compound concentration,CDK12–cyclin K and DDB1; [20],3.176 and 3.283
same,EC50,CDK12–cyclin K and DDB1; [10],57 ± 3 nM
same,EC50,CDK12–cyclin K and DDB1; [11],56.8 nM
same,DC50,[1],> 10000 nM
